Laboratory results taken from PubChem BioAssay AID256 (DTP/NCI, 2004).
Several values for one entry are separate records, joined by “and”; a condition that tells them apart may be missing. Equal values may be shown once. Inconclusive results and toxic doses are left out. How the source made its calls: active means survival T/C of 150% or more; inactive means T/C below 125% in these data.

Test system: CD2F1 mice, L1210 leukemia ip, survival T/C
Test: NCI In Vivo Anticancer Drug Screen. Data for tumor model L1210 Leukemia (intraperitoneal) in CD2F1 (CDF1) mice
Details: higher = longer survival
Procedure, shortened: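 Compound-dosed mice with transplantable tumor versus matched vehicle controls; endpoint ratio T/C reported.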

[1] = endpoint: mean survival time, dose: 100.0 mg/kg/injection, schedule: Q01DX009 (ip), vehicle: saline with Tween-80
[2] = endpoint: mean survival time, dose: 100.0 mg/kg/injection, schedule: Q04DX003 (ip), vehicle: saline with Tween-80
[3] = endpoint: mean survival time, dose: 200.0 mg/kg/injection, schedule: Q01DX009 (ip), vehicle: saline with Tween-80
[4] = endpoint: mean survival time, dose: 200.0 mg/kg/injection, schedule: Q04DX003 (ip), vehicle: saline with Tween-80
[5] = endpoint: mean survival time, dose: 400.0 mg/kg/injection, schedule: Q01DX009 (ip), vehicle: saline with Tween-80
[6] = endpoint: mean survival time, dose: 400.0 mg/kg/injection, schedule: Q04DX003 (ip), vehicle: saline with Tween-80
[7] = endpoint: mean survival time, dose: 100.0 mg/kg/injection, schedule: Q01DX001 (ip), vehicle: saline with Tween-80
[8] = endpoint: mean survival time, dose: 200.0 mg/kg/injection, schedule: Q01DX001 (ip), vehicle: saline with Tween-80
[9] = endpoint: mean survival time, dose: 400.0 mg/kg/injection, schedule: Q01DX001 (ip), vehicle: saline with Tween-80
[10] = endpoint: mean survival time, dose: 100.0 mg/kg/injection, schedule: Q04DX002 (ip), vehicle: saline with Tween-80
[11] = endpoint: mean survival time, dose: 200.0 mg/kg/injection, schedule: Q04DX002 (ip), vehicle: saline with Tween-80
[12] = endpoint: mean survival time, dose: 400.0 mg/kg/injection, schedule: Q04DX002 (ip), vehicle: saline with Tween-80
[13] = endpoint: mean survival time, dose: 25.0 mg/kg/injection, schedule: Q04DX002 (ip), vehicle: saline with Tween-80
[14] = endpoint: mean survival time, dose: 50.0 mg/kg/injection, schedule: Q04DX002 (ip), vehicle: saline with Tween-80

Measured: T/C

Cn1c(=O)[nH]c2nncnc2c1=O
inactive: endpoint: mean survival time, dose: 2.0 mg/kg/injection, schedule: Q01DX009 (ip), vehicle: water 103 % of control | endpoint: mean survival time, dose: 4.0 mg/kg/injection, schedule: Q01DX009 (ip), vehicle: water 97 % of control | endpoint: mean survival time, dose: 8.0 mg/kg/injection, schedule: Q01DX009 (ip), vehicle: water 97 % of control | endpoint: mean survival time, dose: 16.0 mg/kg/injection, schedule: Q01DX009 (ip), vehicle: water 98 % of control | endpoint: mean survival time, dose: 32.0 mg/kg/injection, schedule: Q01DX009 (ip), vehicle: water 101 % of control | endpoint: mean survival time, dose: 375.0 micrograms/kg/injection, schedule: Q01DX009 (ip), vehicle: saline 100 % of control | endpoint: mean survival time, dose: 750.0 micrograms/kg/injection, schedule: Q01DX009 (ip), vehicle: saline 104 % of control | endpoint: mean survival time, dose: 1500.0 micrograms/kg/injection, schedule: Q01DX009 (ip), vehicle: saline 100 % of control | endpoint: mean survival time, dose: 3000.0 micrograms/kg/injection, schedule: Q01DX009 (ip), vehicle: saline 100 % of control

Nc1ccc2c(S(=O)(=O)O)ccc(O)c2c1
inactive: [1] 100 % of control | [2] 96 % of control | [3] 93 % of control | [4] 96 % of control | [5] 90 % of control | [6] 98 % of control

O=C(O)CC1(c2ccccc2)OC(=O)c2ccccc21 (centres undefined)
inactive: [7] 91 % of control | [1] 96 % of control | [8] 94 % of control | [3] 100 % of control | [9] 89 % of control

Cc1ccc(S(=O)(=O)[N-]Cl)cc1.[Cl][Pt][Cl]
inactive: endpoint: mean survival time, dose: 4.7 mg/kg/injection, schedule: Q04DX003 (ip), vehicle: saline with Tween-80 95 % of control | endpoint: mean survival time, dose: 9.4 mg/kg/injection, schedule: Q04DX003 (ip), vehicle: saline with Tween-80 100 % of control | endpoint: mean survival time, dose: 18.75 mg/kg/injection, schedule: Q04DX003 (ip), vehicle: saline with Tween-80 100 % of control | endpoint: mean survival time, dose: 37.5 mg/kg/injection, schedule: Q04DX003 (ip), vehicle: saline with Tween-80 103 % of control | endpoint: mean survival time, dose: 75.0 mg/kg/injection, schedule: Q04DX003 (ip), vehicle: saline with Tween-80 103 % of control

O=C(O)CCOc1cc(F)c(F)cc1F
inactive: [10] 101 % of control | [11] 90 % of control | [12] 97 % of control

Cc1cc(C)[nH]c(=O)c1
inactive: endpoint: mean survival time, dose: 100.0 mg/kg/injection, schedule: Q01DX009 (ip), vehicle: saline 106 % of control | endpoint: mean survival time, dose: 200.0 mg/kg/injection, schedule: Q01DX009 (ip), vehicle: saline 106 % of control | endpoint: mean survival time, dose: 400.0 mg/kg/injection, schedule: Q01DX009 (ip), vehicle: saline 106 % of control

COc1cc(CC#N)ccc1OCc1ccccc1
inactive: endpoint: mean survival time, dose: 12.5 mg/kg/injection, schedule: Q01DX009 (ip), vehicle: other 102 % of control | endpoint: mean survival time, dose: 25.0 mg/kg/injection, schedule: Q01DX009 (ip), vehicle: other 101 % of control | endpoint: mean survival time, dose: 25.0 mg/kg/injection, schedule: Q04DX003 (ip), vehicle: other 102 % of control | endpoint: mean survival time, dose: 50.0 mg/kg/injection, schedule: Q01DX009 (ip), vehicle: other 100 % of control | endpoint: mean survival time, dose: 50.0 mg/kg/injection, schedule: Q04DX003 (ip), vehicle: other 96 % of control | endpoint: mean survival time, dose: 100.0 mg/kg/injection, schedule: Q04DX003 (ip), vehicle: other 103 % of control

COC[C@H]1OC(=O)c2coc3c2[C@@]1(C)C1=C(C3=O)[C@@H]2CCC(=O)[C@@]2(C)C[C@H]1OC(C)=O
inactive: endpoint: mean survival time, dose: 0.16 mg/kg/injection, schedule: Q01DX009 (ip), vehicle: saline 102 % of control | endpoint: mean survival time, dose: 0.31 mg/kg/injection, schedule: Q01DX009 (ip), vehicle: saline 98 % of control | endpoint: mean survival time, dose: 0.63 mg/kg/injection, schedule: Q01DX009 (ip), vehicle: saline 102 % of control | endpoint: mean survival time, dose: 1.25 mg/kg/injection, schedule: Q01DX009 (ip), vehicle: saline with Tween-80 86 % of control | endpoint: mean survival time, dose: 1.25 mg/kg/injection, schedule: Q01DX009 (ip), vehicle: saline 110 % of control

CC1CCSCS1 (centres undefined)
inactive: endpoint: mean survival time, dose: 12.5 mg/kg/injection, schedule: Q04DX002 (ip), vehicle: saline with Tween-80 97 % of control | [13] 102 % of control | [14] 102 % of control

Clc1ccc(C(=Cc2ccccc2)c2ccc(Cl)cc2)cc1
inactive: [1] 102 % of control | [2] 90 % of control | [3] 93 % of control | [4] 93 % of control | [5] 96 % of control | [6] 97 % of control

CCCC(=O)Nc1ccccc1
inactive: [7] 96 % of control | [1] 102 % of control | [8] 95 % of control | [3] 102 % of control | [9] 98 % of control | [5] 112 % of control

CCC(CNCCCC(=O)O)(C(=O)O)C(=O)O
inactive: [13] 98 % of control | [14] 94 % of control | [10] 102 % of control

O=C(c1ccc(Cl)cc1)C(O)c1ccc(Cl)cc1 (centres undefined)
inactive: [1] 93 % of control | [2] 100 % of control | [3] 98 % of control | [4] 96 % of control | [5] 107 % of control | [6] 91 % of control

CCOP(=S)(OCC)C(C)(C)C
inactive: [10] 107 % of control | [11] 103 % of control | [12] 95 % of control

CCC(C)OP(=S)(S)OC(C)CC.[Zn+2] (centres undefined)
inactive: endpoint: mean survival time, dose: 0.75 mg/kg/injection, schedule: Q01DX009 (ip), vehicle: saline with Tween-80 88 % of control and 90 % of control | endpoint: mean survival time, dose: 1.5 mg/kg/injection, schedule: Q01DX009 (ip), vehicle: saline with Tween-80 103 % of control | endpoint: mean survival time, dose: 3.0 mg/kg/injection, schedule: Q01DX009 (ip), vehicle: saline with Tween-80 88 % of control and 92 % of control | endpoint: mean survival time, dose: 3.13 mg/kg/injection, schedule: Q01DX009 (ip), vehicle: saline with Tween-80 86 % of control and 88 % of control | endpoint: mean survival time, dose: 6.25 mg/kg/injection, schedule: Q04DX003 (ip), vehicle: saline with Tween-80 93 % of control | endpoint: mean survival time, dose: 12.5 mg/kg/injection, schedule: Q01DX001 (ip), vehicle: saline with Tween-80 101 % of control | endpoint: mean survival time, dose: 12.5 mg/kg/injection, schedule: Q04DX003 (ip), vehicle: saline with Tween-80 95 % of control | endpoint: mean survival time, dose: 25.0 mg/kg/injection, schedule: Q01DX001 (ip), vehicle: saline with Tween-80 100 % of control | [13] 94 % of control and 100 % of control | endpoint: mean survival time, dose: 25.0 mg/kg/injection, schedule: Q04DX003 (ip), vehicle: saline with Tween-80 97 % of control | [14] 120 % of control and 94 % of control

COc1ccc(C2C3CN(C4CCCCC4)C(=O)C3(O)NN2C)cc1 (centres undefined)
inactive: [7] 91 % of control | [8] 88 % of control | [9] 91 % of control

Cc1ccc(C(=O)c2nnc(C(=O)c3ccc(C)cc3)nn2)cc1
inactive: [2] 92 % of control | [4] 92 % of control | [6] 86 % of control

CN(C)CCC(=O)C(=Cc1ccc(O)cc1)C(=O)CCN(C)C
inactive: endpoint: median survival time, dose: 12.5 mg/kg/injection, schedule: Q01DX009 (ip), vehicle: saline 104 % of control | endpoint: median survival time, dose: 25.0 mg/kg/injection, schedule: Q01DX009 (ip), vehicle: saline 101 % of control | endpoint: median survival time, dose: 50.0 mg/kg/injection, schedule: Q01DX009 (ip), vehicle: saline 100 % of control | endpoint: median survival time, dose: 100.0 mg/kg/injection, schedule: Q01DX009 (ip), vehicle: saline 97 % of control | endpoint: median survival time, dose: 200.0 mg/kg/injection, schedule: Q01DX009 (ip), vehicle: saline 97 % of control

COc1ccc(C=Nc2ccc(C)cc2)cc1
inactive: [1] 108 % of control | [2] 103 % of control | [3] 98 % of control | [4] 115 % of control | [5] 104 % of control | [6] 116 % of control

CC(C)CN1CCCC(=O)C(O)CCC1 (centres undefined)
inactive: endpoint: mean survival time, dose: 25.0 mg/kg/injection, schedule: Q01DX009 (ip), vehicle: acetone 98 % of control | endpoint: mean survival time, dose: 50.0 mg/kg/injection, schedule: Q01DX009 (ip), vehicle: acetone 93 % of control

C(CCSC1=NCCN1)CSC1=NCCN1
inactive: endpoint: mean survival time, dose: 25.0 mg/kg/injection, schedule: Q04DX002 (ip), vehicle: saline 96 % of control | endpoint: mean survival time, dose: 50.0 mg/kg/injection, schedule: Q04DX002 (ip), vehicle: saline 107 % of control | endpoint: mean survival time, dose: 100.0 mg/kg/injection, schedule: Q04DX002 (ip), vehicle: saline 90 % of control

C[Si](C)(C)n1nnn(-c2ccccc2)c1=O
inactive: endpoint: mean survival time, dose: 12.5 mg/kg/injection, schedule: Q01DX009 (ip), vehicle: saline with Tween-80 97 % of control and 100 % of control | endpoint: mean survival time, dose: 25.0 mg/kg/injection, schedule: Q01DX009 (ip), vehicle: saline with Tween-80 97 % of control | endpoint: mean survival time, dose: 50.0 mg/kg/injection, schedule: Q01DX009 (ip), vehicle: saline with Tween-80 97 % of control and 101 % of control | [1] 100 % of control and 103 % of control | [3] 100 % of control and 103 % of control | [5] 101 % of control

COC(=O)C(N)CS (centres undefined)
inactive: [2] 101 % of control | [4] 101 % of control | [6] 106 % of control

OCC(O)C(O)C(O)c1csc(=S)[nH]1 (centres undefined)
inactive: [7] 97 % of control | [8] 103 % of control | [9] 100 % of control
